Reference: the NIST ThermoML archive (doi:10.1016/j.jct.2017.02.024)
± gives the expanded uncertainty stated by the source.

Assay: mn = molality of the nth substance listed, in mol/kg
Conditions: 100 kPa, Liquid; for viscosity: Capillary tube (Ostwald / Ubbelohde) method; for mass density: Vibrating tube method

O [water] + N=C(N)NCCC[C@H](N)C(=O)O
m2 = 0
Conditions | mass density [kg/m3] | viscosity [mPa·s]
293.15 K | – | 1.002 ± 0.041
303.15 K | – | 0.798 ± 0.032
313.15 K | – | 0.654 ± 0.026
323.15 K | 988.02 ± 1.4 | 0.547 ± 0.022

C[C@H](N)C(=O)O [(S)-2-aminopropanoic acid] + O
Conditions | mass density, 293.15 K [kg/m3] | mass density, 303.15 K [kg/m3] | mass density, 313.15 K [kg/m3] | mass density, 323.15 K [kg/m3] | viscosity, 293.15 K [mPa·s] | viscosity, 303.15 K [mPa·s] | viscosity, 313.15 K [mPa·s] | viscosity, 323.15 K [mPa·s]
m1 = 0.1 | 1001.06 ± 1.4 | 998.5 ± 1.4 | 995.04 ± 1.4 | 990.8 ± 1.4 | 1.027 ± 0.042 | 0.817 ± 0.033 | 0.669 ± 0.027 | 0.559 ± 0.023
m1 = 0.2 | 1003.89 ± 1.4 | 1001.29 ± 1.4 | 997.81 ± 1.4 | 993.55 ± 1.4 | 1.053 ± 0.043 | 0.837 ± 0.034 | 0.684 ± 0.028 | 0.571 ± 0.023
m1 = 0.3 | 1006.66 ± 1.4 | 1004.03 ± 1.4 | 1000.5 ± 1.4 | 996.24 ± 1.4 | 1.079 ± 0.044 | 0.857 ± 0.035 | 0.7 ± 0.028 | 0.584 ± 0.024
m1 = 0.4 | – | – | – | – | 1.106 ± 0.045 | 0.878 ± 0.036 | 0.716 ± 0.029 | 0.597 ± 0.024
m1 = 0.401 | 1009.41 ± 1.4 | 1006.73 ± 1.4 | 1003.18 ± 1.4 | 998.9 ± 1.4 | – | – | – | –
m1 = 0.5 | 1012.07 ± 1.4 | 1009.37 ± 1.4 | 1005.79 ± 1.4 | 1001.49 ± 1.4 | 1.134 ± 0.046 | 0.898 ± 0.036 | 0.733 ± 0.03 | 0.611 ± 0.025
m1 = 0.6 | 1014.71 ± 1.4 | 1011.97 ± 1.4 | 1008.36 ± 1.4 | 1004.08 ± 1.4 | 1.163 ± 0.047 | 0.921 ± 0.037 | 0.751 ± 0.03 | 0.624 ± 0.025
m1 = 0.7 | 1017.29 ± 1.4 | 1014.52 ± 1.4 | 1010.9 ± 1.4 | 1006.6 ± 1.4 | 1.193 ± 0.048 | 0.943 ± 0.038 | 0.768 ± 0.031 | 0.638 ± 0.026

N=C(N)NCCC[C@H](N)C(=O)O [L-arginine] + O
Conditions | mass density, 293.15 K [kg/m3] | mass density, 303.15 K [kg/m3] | mass density, 313.15 K [kg/m3] | mass density, 323.15 K [kg/m3] | viscosity, 293.15 K [mPa·s] | viscosity, 303.15 K [mPa·s] | viscosity, 313.15 K [mPa·s] | viscosity, 323.15 K [mPa·s]
m1 = 0.1 | 1003.16 ± 1.4 | 1000.56 ± 1.4 | 997.08 ± 1.4 | 992.8 ± 1.4 | 1.054 ± 0.043 | 0.837 ± 0.034 | 0.684 ± 0.028 | 0.572 ± 0.023
m1 = 0.2 | 1007.98 ± 1.4 | 1005.3 ± 1.4 | 1001.76 ± 1.4 | 997.43 ± 1.4 | 1.109 ± 0.045 | 0.879 ± 0.036 | 0.716 ± 0.029 | 0.598 ± 0.024
m1 = 0.3 | 1012.67 ± 1.4 | 1009.89 ± 1.4 | 1006.3 ± 1.4 | 1001.92 ± 1.4 | 1.167 ± 0.047 | 0.922 ± 0.037 | 0.751 ± 0.03 | 0.625 ± 0.025
m1 = 0.4 | 1017.19 ± 1.4 | 1014.33 ± 1.4 | 1010.71 ± 1.4 | 1006.3 ± 1.4 | 1.229 ± 0.05 | 0.969 ± 0.039 | 0.786 ± 0.032 | 0.653 ± 0.026
m1 = 0.5 | 1021.57 ± 1.4 | 1018.66 ± 1.4 | 1014.97 ± 1.4 | 1010.54 ± 1.4 | 1.296 ± 0.052 | 1.019 ± 0.041 | 0.825 ± 0.033 | 0.682 ± 0.028
m1 = 0.6 | 1025.85 ± 1.4 | 1022.85 ± 1.4 | 1019.13 ± 1.4 | 1014.68 ± 1.4 | 1.366 ± 0.055 | 1.069 ± 0.043 | 0.863 ± 0.035 | 0.713 ± 0.029
m1 = 0.7 | 1030 ± 1.4 | 1026.94 ± 1.4 | 1023.18 ± 1.4 | 1018.67 ± 1.4 | 1.435 ± 0.058 | 1.121 ± 0.045 | 0.903 ± 0.037 | 0.743 ± 0.03

CC(C)[C@H](N)C(=O)O [L-valine] + O
Conditions | mass density, 293.15 K [kg/m3] | mass density, 303.15 K [kg/m3] | mass density, 313.15 K [kg/m3] | mass density, 323.15 K [kg/m3] | viscosity, 293.15 K [mPa·s] | viscosity, 303.15 K [mPa·s] | viscosity, 313.15 K [mPa·s] | viscosity, 323.15 K [mPa·s]
m1 = 0.1 | 1000.87 ± 1.4 | 998.32 ± 1.4 | 994.85 ± 1.4 | 990.59 ± 1.4 | 1.044 ± 0.042 | 0.83 ± 0.034 | 0.678 ± 0.027 | 0.567 ± 0.023
m1 = 0.2 | 1003.5 ± 1.4 | 1000.9 ± 1.4 | 997.4 ± 1.4 | 993.09 ± 1.4 | 1.088 ± 0.044 | 0.864 ± 0.035 | 0.704 ± 0.029 | 0.587 ± 0.024
m1 = 0.3 | 1006.05 ± 1.4 | 1003.43 ± 1.4 | 999.89 ± 1.4 | 995.54 ± 1.4 | 1.134 ± 0.046 | 0.899 ± 0.036 | 0.731 ± 0.03 | 0.608 ± 0.025
m1 = 0.4 | 1008.55 ± 1.4 | 1005.9 ± 1.4 | 1002.34 ± 1.4 | 997.95 ± 1.4 | 1.183 ± 0.048 | 0.936 ± 0.038 | 0.76 ± 0.031 | 0.63 ± 0.026
